Results as given in patent publication US8389523B2, “Substituted quinoxaline and an agrochemical composition thereof” (Kumiai Chemical Industry Co., Ltd., priority 2007, dated 2013).

What was measured:
Format in all cases: in vivo
Set-up in all cases: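 grade 0 to 5 of growth suppression where 5 is 90% or more and 0 below 10%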
[1] = tested on: Monochoria vaginalis (Burm. f.) Presl var. plantaginea (Roxb.) Solms-Laub.; assay: Herbicidal effects in paddy field soil treatment (Test Example 1); conditions: paddy field soil treatment; 1000 g of the active ingredient per hectare; wettable powder added dropwise on water surface; 21st day after treatment
Method in brief: (§1)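 Flooded-paddy soil treatment under greenhouse conditions: a diluted wettable powder at 1000 g a.i./ha went onto the water surface one day post-sowing, with 3 cm standing water, and weed control was graded on a scoring scale 21 days after treatment.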

[2] = tested on: Scirpus juncoides Roxb. var. ohwianus. T. Koyama; assay: as above; conditions: paddy field soil treatment; 1000 g of the active ingredient per hectare; wettable powder added dropwise on water surface; 21st day after treatment
Method in brief: as §1

[3] = tested on: Echinochloa oryzicola Vasing; assay: as above; conditions: paddy field soil treatment; 1000 g of the active ingredient per hectare; wettable powder added dropwise on water surface; 21st day after treatment
Method in brief: as §1

[4] = tested on: Echinochloa crus-galli (L.) P. Beauv. var. crus-galli; assay: Herbicidal effects in upland field foliar treatment (Test Example 3); conditions: 1000 g of the active ingredient per hectare, 14th day after the treatment, wettable powder, criteria of Table 138
Method in brief: (§2)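 Post-emergence foliar treatment: two-week-old seedlings from upland field soil received 1000 g a.i./ha (wettable powder, 1000 L water/ha), then returned to the greenhouse for scoring 14 days later.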

[5] = tested on: Abutilon theophrasti medicus; assay: as above; conditions: 1000 g of the active ingredient per hectare, 14th day after the treatment, wettable powder, criteria of Table 138
Method in brief: as §2

Amaranthus viridis L. [6] = assay: as above; conditions: 1000 g of the active ingredient per hectare, 14th day after the treatment, wettable powder, criteria of Table 138
Method in brief: as §2

[7] = tested on: Abutilon theophrasti medicus; assay: Herbicidal effects in upland field soil treatment (Test Example 2); conditions: 1000 g active ingredient per hectare, 21st day after treatment, criteria of Table 138
Method in brief: (§3)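 Soil-applied before emergence at 1000 g a.i./ha as water-diluted wettable powder; greenhouse-grown plants rated for herbicidal damage 21 days post-treatment.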

Amaranthus viridis L. [8] = assay: as above; conditions: 1000 g active ingredient per hectare, 21st day after treatment, criteria of Table 138
Method in brief: as §3

Structure (SMILES) | Herbicidal effects index, Monochoria vaginalis (Burm. f.) Presl var. plantaginea (Roxb.) Solms-Laub. [1] | Herbicidal effects index, Scirpus juncoides Roxb. var. ohwianus. T. Koyama [2] | Herbicidal effects index, Echinochloa oryzicola Vasing [3] | herbicidal effects on Echinochloa crus-galli (L.) P. Beauv. var. crus-galli [4] | herbicidal effects on Abutilon theophrasti medicus [5] | herbicidal effects on Amaranthus viridis L. (Amaranthus viridis L. [6]) | herbicidal effect (index) on Abutilon theophrasti medicus [7] | herbicidal effect (index) on Amaranthus viridis L. (Amaranthus viridis L. [8])
CC(c1ccccc1)n1c(=O)c(C(=O)C2=C(O)CCCC2=O)nc2cccnc21 (stereo not drawn) [III-130] | 5 | 5 | 5 | 5 | 5 | 5 | 5 | 5
CC(CCn1c(=O)c(C(=O)C2=C(O)CCCC2=O)nc2cccnc21)=C(F)F [III-232] | 5 | 5 | 5 | 5 | 5 | 5 | 5 | 5
O=C1CCCC(O)=C1C(=O)c1nc2cccnc2n(Cc2ccccc2OC(F)F)c1=O [III-234] | 5 | 5 | 5 | 5 | 5 | 5 | 5 | 5
O=C1CCCC(O)=C1C(=O)c1nc2cccnc2n(-c2ccccc2)c1=O [IV-1, 2-(2-hydroxy-6-oxo-1-cyclohexenecarbonyl)-4-phenyl-pyrido[2,3-b]pyrazin-3(4H)-one] | 5 | 5 | 5 | 5 | 5 | 5 | 5 | 5
CC1(C)CCC(=O)C(C(=O)c2nc3cccnc3n(-c3ccccc3)c2=O)=C1O [IV-2] | 5 | 5 | 5 | 5 | 5 | 5 | 5 | 5
CC1(C)CC(=O)C(C(=O)c2nc3cccnc3n(-c3ccccc3)c2=O)=C(O)C1 [IV-3] | 5 | 5 | 5 | 5 | 5 | 5 | 5 | 5
O=C(C1=C(O)C2CCC(C2)C1=O)c1nc2cccnc2n(-c2ccccc2)c1=O (stereo not drawn) [IV-4] | 5 | 5 | 5 | 5 | 5 | 5 | 5 | 5
O=C1CCCC(O)=C1C(=O)c1nc2cccnc2n(-c2ccccc2F)c1=O [IV-6] | 5 | 5 | 4 | 4 | 5 | 5 | 5 | 5
O=C1CCCC(O)=C1C(=O)c1nc2cccnc2n(-c2cccc(F)c2)c1=O [IV-7] | 5 | 5 | 5 | 5 | 5 | 5 | 5 | 5
